Source: PMC10809383, “Synthesis and migrastatic activity of cytochalasin analogues lacking a macrocyclic moiety” (RSC Medicinal Chemistry, 2023)

Key:
Assay type in all cases: cell-based
[1] = tested on: human fibroblasts (MRC-5); experiment: WST-1 viability assay, MRC-5 cells; conditions: MRC5, 72 h treatment, WST-1 assay, 2D culture, 0–50 μM
Method: (§1) In addition, the cytotoxic activity of compounds 17, 20, and 22–30 was assessed by the WST-1 viability assay using BLM (human melanoma) and MRC-5 (noncancerous human fibroblasts) cells growing in a monolayer (2D cultures, Table 2) after 72 h of treatment.
(§2) Human cells from melanoma (BLM) and human lung fibroblasts (MRC-5, Merck, USA) were used to evaluate in vitro cytotoxicity of the prepared compounds. The cells were maintained at the exponential phase of growth (passaging done by trypsin–EDTA solution) in DMEM and MEM, for BLM and MRC-5, respectively, with stable L-glutamine and supplemented with 10% fetal bovine serum (Thermo Fisher Scientific, USA). The cells were kept in an incubator at 37 °C, 5% CO2 in the atmosphere, and 95% humidity.
(§3) The compound cytotoxicity was determined by a WST-1 viability assay (Merck, USA). The amount of 5000 BLM and MRC-5 cells were seeded into individual wells of 96-well plates in 100 μL of cell cultivation media and maintained in an incubator for 16 h. After this period, the cells were treated with a concentration series (0–50 μM) of the tested compounds diluted in another 100 μL of cultivation media, which was added to the wells containing cells and incubated for 72 h. Then, BLM and MRC-5 cell viability was evaluated by WST-1 agent (5% v/v solution in phenol red-free DMEM media), i.e., the cell media was discarded and 100 μL of WST-1 solution was added. After 2 h incubation, the absorbance of formazan, derived from the WST-1 tetrazolium salt was determined spectrophotometrically at 450 nm (reference at 650 nm) by a UV-vis spectrophotometer (Bio-Rad, USA). Untreated cells, cells treated only with a vehicle, and cells treated with cytochalasin B (1) and D (2) served as controls. The measurement occurred in three independent repetitions each of which consisted of three technical replicates. The data were plotted as dose–response curves from which the half-maximal inhibitory concentrations (IC50) were calculated using AAT Bioquest.

[2] = tested on: human melanoma cell line BLM; experiment: Spheroid invasion assay (migrastatic activity); conditions: 24 h; for rel. spheroid area: 10 µM, BLM spheroids in collagen, DMSO control 1.02
Method: Compounds 17, 20, and 22–30 were screened for their migrastatic activity using a spheroid invasion assay with the human melanoma cell line BLM.[46] Spheroids were formed and subsequently treated with cytochalasin analogues at a concentration of 10 μM for 24 h. CytB (1) and CytD (2) served as reference compounds for comparison. There was no significant increase in cell migration observed for any of the compounds tested. […] However, the effect was less profound than that of the reference compounds 1 and 2.
The spheroid invasion assay was performed following a previously published protocol.[63] Briefly, BLM cells were grown as spheroids using 3D Petri Dish (Microtissues). After 2 days of spheroid formation, 1.5 mg mL^−1 collagen solution (rat tail, collagen type I) was prepared (1.5 mg mL^−1 rat-tail collagen, 1× DMEM, 1% (v/v) FBS) and added at the bottom of a 96-well plate. Spheroids were embedded into the collagen (one spheroid per well) and covered with another layer of the gel. Collagen was polymerized at 37 °C and subsequently overlaid with a cultivation medium. Images of spheroids were taken with Leica TCS SP2 microscope (5×/0.15 dry objective; LAS X Life Science Microscope software) immediately after their seeding into collagen and again after 24 h. The area of the spheroids at 0 and 24 h was measured using FiJi (Rasband, W.S., ImageJ, NIH, Bethesda, MD, USA). Cellular invasiveness was determined as an increase in spheroid area within 24 h. Three independent experiments were conducted with at least 8 spheroids analysed in each experiment. Statistical analysis was performed in GraphPad using one-way ANOVA. For numeric data and representative images from this assay, see ESI, ^† Table S1 and Fig. S1.
Table S1: Spheroid invasion assay with BLM cell line at 10 µM concentration, 24 h.
Figure S1: Representative images of BLM cell spheroid invasion assay with or without
inhibitor. Images were taken at 0 h and 24 h. using a Leica TCS SP2 microscope (5x/0.15
dry objective). DMSO (first column) was used as a control. Scale bar 500 µm.

[3] = tested on: human melanoma cells (BLM); experiment: WST-1 viability assay, BLM cells; conditions: for IC50: Homo sapiens, 72 h treatment, WST-1 assay, 2D culture, 0–50 μM; for selectivity index (SI): MRC-5 versus BLM, 72 h, WST-1
Method: as §1, §2, §3

[4] = tested on: HT1080 fibrosarcoma cells; experiment: Fluorescence microscopy of actin cytoskeleton (SPY650-FastAct time-lapse); conditions: 10 μM, within 2 min of addition
Method: Next, we conducted experiments to assess the impact of compound 24, CytB (1) and CytD (2) on the actin cytoskeleton using fluorescence microscopy in HT1080 fibrosarcoma cells (Fig. 3). […] Therefore, we increased the concentration up to 50 μM.
HT1080 cells were seeded into 12-well glass bottom plate and stained with SPY650-FastAct™ following manufacturer's protocol. Untreated cells (control) were imaged every 20 s for 15 min using Leica TCS SP2 microscope (40×/0.6 dry objective). Afterwards, an inhibitor (compound 24 at 10 μM; 50 μM or compound 1 and 2 at 10 μM) was added into the same well and its effect was recorded for 15 min (20 s/image). All video recordings were analyzed using FiJi (Rasband, W.S., ImageJ, NIH, Bethesda, MD, USA).

Structure (SMILES) | IC50 [1] [µM] | rel. spheroid area [2] | IC50 [3] [µM] | selectivity index (SI) [3] | effect on the actin cytoskeleton [4] | migrastatic activity (cell migration, in words) ([2]; 10 μM, BLM spheroid invasion)
COC(=O)[C@@]12C(=O)N[C@@H](Cc3ccccc3)[C@@H]1[C@H](C)[C@@](C)(Cl)[C@H](O)[C@@H]2CCOCCc1ccccc1 [Compound 26, Methyl (1S,3aS,4R,5R,6R,7S,7aR)-1-benzyl-6-chloro-5-hydroxy-6,7-dimethyl-3-oxo-4-(2-phenethoxyethyl)octahydro-3aH-isoindole-3a-carboxylate] | > 50 | 0.88 | > 50 |  |  | 
COC(=O)[C@@]12C(=O)N[C@@H](Cc3ccccc3)[C@@H]1[C@H](C)C(C)=C[C@@H]2CCOCCc1cccc(F)c1 [Compound 17e, Methyl (1S,3aR,4S,7S,7aR)-1-benzyl-4-(2-(3-fluorophenethoxy)ethyl)-6,7-dimethyl-3-oxo-1,2,3,4,7,7a-hexahydro-3aH-isoindole-3a-carboxylate] | 31.9 ± 4.02 | 0.96 | 25.9 ± 2.97 | 1.2 |  | 
COC(=O)[C@@]12C(=O)N[C@@H](Cc3ccccc3)[C@@H]1[C@H](C)C(C)=C[C@@H]2CCOCCc1ccc(F)cc1 [Compound 17d, Methyl (1S,3aR,4S,7S,7aR)-1-benzyl-4-(2-(4-fluorophenethoxy)ethyl)-6,7-dimethyl-3-oxo-1,2,3,4,7,7a-hexahydro-3aH-isoindole-3a-carboxylate] | 33.5 ± 4.98 | 1.24 | 27.7 ± 2.45 | 1.2 |  | 
C=C1[C@@H](C)[C@H]2[C@H](Cc3ccccc3)NC(=O)[C@]23[C@H](OC(C)=O)/C=C/[C@@](C)(O)C(=O)[C@@H](C)C/C=C/[C@H]3[C@@H]1O [CytD (2), cytochalasin D, reference compound] | 2.36 ± 0.07 | 0.23 | 13.7 ± 1.2 | 0.17 | profound effect on the actin cytoskeleton | 
COC(=O)[C@@]12C(=O)N[C@@H](Cc3ccccc3)[C@@H]1[C@H](C)[C@@]1(C)O[C@H]1[C@@H]2CCOCCc1ccccc1 [Compound 22a, Methyl (1aS,2R,2aS,5S,5aR,6S,6aR)-5-benzyl-6,6a-dimethyl-3-oxo-2-(2-phenethoxyethyl)octahydro-2aH-oxireno[2,3-f]isoindole-2a-carboxylate] | > 50 | 1.11 | > 50 |  |  | 
C=C1[C@@H](C)[C@H]2[C@H](Cc3ccccc3)NC(=O)[C@@]2(C(=O)OC)[C@@H](CCOCCc2ccccc2)[C@@H]1OC(C)=O [Compound 27, Methyl (1S,3aS,4R,5S,7S,7aR)-5-acetoxy-1-benzyl-7-methyl-6-methylene-3-oxo-4-(2-phenethoxyethyl)octahydro-3aH-isoindole-3a-carboxylate] | > 50 | 0.89 | > 50 |  |  | inactive
COC(=O)[C@@]12C(=O)N[C@@H](Cc3ccccc3)[C@@H]1[C@H](C)C(C)=C[C@@H]2CCOCCc1ccc(Cl)cc1 [Compound 17g, Methyl (1S,3aR,4S,7S,7aR)-1-benzyl-4-(2-(4-chlorophenethoxy)ethyl)-6,7-dimethyl-3-oxo-1,2,3,4,7,7a-hexahydro-3aH-isoindole-3a-carboxylate] | 22.2 ± 12.2 | 1.17 | 19.5 ± 1.23 | 1.1 |  | 
COC(=O)[C@@]12C(=O)N[C@@H](Cc3ccccc3)[C@@H]1[C@H](C)C(C)=C[C@@H]2CCOCCc1ccc([N+](=O)[O-])cc1 [Compound 17j, Methyl (1S,3aR,4S,7S,7aR)-1-benzyl-6,7-dimethyl-4-(2-(4-nitrophenethoxy)ethyl)-3-oxo-1,2,3,4,7,7a-hexahydro-3aH-isoindole-3a-carboxylate] | 34.7 ± 6.18 | 1.12 | 35.2 ± 2.51 | 1.0 |  | 
COC(=O)[C@@]12C(=O)N[C@@H](Cc3ccccc3)[C@@H]1[C@H](C)C(C)=C[C@@H]2CCOCCc1ccc(C)cc1 [Compound 17c, Methyl (1S,3aR,4S,7S,7aR)-1-benzyl-6,7-dimethyl-4-(2-(4-methylphenethoxy)ethyl)-3-oxo-1,2,3,4,7,7a-hexahydro-3aH-isoindole-3a-carboxylate] | 21.5 ± 2.78 | 0.93 | 30.3 ± 4.87 | 0.71 |  | 
COC(=O)[C@@]12C(=O)N[C@@H](Cc3ccccc3)[C@@H]1[C@H](C)[C@@]1(C)O[C@H]1[C@@H]2CCOCCc1ccc(OC)cc1 [Compound 22b, Methyl (1aS,2R,2aS,5S,5aR,6S,6aR)-5-benzyl-2-(2-(4-methoxyphenethoxy)ethyl)-6,6a-dimethyl-3-oxooctahydro-2aH-oxireno[2,3-f]isoindole-2a-carboxylate] | > 50 | 1.24 | 20.6 ± 6.43 | >2.4 |  | 
COC(=O)[C@@]12C(=O)N[C@@H](Cc3ccccc3)[C@@H]1[C@H](C)C(C)=C[C@@H]2CCOCCc1ccccc1 [Compound 17a, Methyl (1S,3aR,4S,7S,7aR)-1-benzyl-6,7-dimethyl-3-oxo-4-(2-phenethoxyethyl)-1,2,3,4,7,7a-hexahydro-3aH-isoindole-3a-carboxylate] | 30.5 ± 0.38 | 1.21 | 27.1 ± 1.24 | 1.1 |  | 
CC1=C[C@H](CCOCCc2ccccc2)[C@]2(C(=O)O)C(=O)N[C@@H](Cc3ccccc3)[C@@H]2[C@@H]1C [Compound 29, (1S,3aR,4S,7S,7aR)-1-Benzyl-6,7-dimethyl-3-oxo-4-(2-phenethoxyethyl)-1,2,3,4,7,7a-hexahydro-3aH-isoindole-3a-carboxylic acid] | > 50 | 1.05 | > 50 |  |  | 
COC(=O)[C@@]12C(=O)N[C@@H](Cc3ccccc3)[C@@H]1[C@H](C)C(C)=C[C@@H]2CCOCCc1cccc(Br)c1 [Compound 17i, Methyl (1S,3aR,4S,7S,7aR)-1-benzyl-4-(2-(3-bromophenethoxy)ethyl)-6,7-dimethyl-3-oxo-1,2,3,4,7,7a-hexahydro-3aH-isoindole-3a-carboxylate] | 31.2 ± 6.95 | 1.14 | 24.3 ± 1.82 | 1.3 |  | 
COC(=O)[C@@]12C(=O)N[C@@H](Cc3ccccc3)[C@@H]1[C@H](C)C(C)=C[C@@H]2CCOCCc1ccc(Br)cc1 [Compound 17h, Methyl (1S,3aR,4S,7S,7aR)-1-benzyl-4-(2-(4-bromophenethoxy)ethyl)-6,7-dimethyl-3-oxo-1,2,3,4,7,7a-hexahydro-3aH-isoindole-3a-carboxylate] | > 50 | 1.05 | > 50 |  |  | 
